Literature values in patent publication US20230037660A1, “METHODS OF TREATING VASCULAR LESIONS AND MALFORMATIONS” (priority 2019, published 2023).

Test system: diseased tissue / blood vessels
Settings: ICG alone, not conjugated

CC1(C)C(/C=C/C=C/C=C/C=C2\N(CCCCS(=O)(=O)O)c3ccc4ccccc4c3C2(C)C)=[N+](CCCCS(=O)(=O)[O-])c2ccc3ccccc3c21 [ICG, indocyanine green]
Fluorescence behaviour of the dye alone after injection: transiently lights up blood vessels immediately after injection
